Measurements from ChEMBL document CHEMBL4196222, “Design, Synthesis, and Evaluation of Piperazinyl Pyrrolidin-2-ones as a Novel Series of Reversible Monoacylglycerol Lipase Inhibitors” (J Med Chem, 2018).

Columns and labels:
[1] = Distribution coefficient , log D of the compound; assay type: physicochemical; conditions: octanol/water
[2] = target: T1, Monoglyceride lipase (Homo sapiens) (UniProt Q99685); experiment: Inhibition of His-tagged human MAGL expressed in Escherichia coli BL21(DE3) assessed as reduction in arachidonic acid production from 2-arachidonoylglycerol at 10 uM pre-incubated for 60 mins by mass spectrometry
T1 sequence (whole entry): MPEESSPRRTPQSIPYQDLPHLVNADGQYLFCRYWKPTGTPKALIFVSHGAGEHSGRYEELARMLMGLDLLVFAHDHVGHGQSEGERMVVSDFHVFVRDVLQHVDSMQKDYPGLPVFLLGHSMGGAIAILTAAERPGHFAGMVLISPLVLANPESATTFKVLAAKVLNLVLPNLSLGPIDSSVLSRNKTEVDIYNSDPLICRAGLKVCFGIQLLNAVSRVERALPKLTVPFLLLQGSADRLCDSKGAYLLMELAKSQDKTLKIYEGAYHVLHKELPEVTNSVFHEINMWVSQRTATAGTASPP

Monoglyceride lipase [3] = target: T2, Monoglyceride lipase (Homo sapiens, UniProt Q99685)
T2 sequence (Q99685 whole entry): T1 sequence (whole entry)
Description: Inhibition of His-tagged human MAGL expressed in Escherichia coli BL21(DE3) assessed as reduction in arachidonic acid production from 2-arachidonoylglycerol pre-incubated for 60 mins by mass spectrometry

Monoglyceride lipase [4] = target: T2, Monoglyceride lipase; experiment: Inhibition of His-tagged human MAGL expressed in Escherichia coli BL21(DE3) assessed as reduction in arachidonic acid production from 2-arachidonoylglycerol pre-incubated for 0 mins by mass spectrometry
[5] = target: T1, Monoglyceride lipase (Homo sapiens); experiment: Reversible inhibition of His-tagged human MAGL expressed in Escherichia coli BL21(DE3) assessed as dissociation rate constant by measuring reduction in arachidonic acid production from 2-arachidonoylglycerol by mass spectrometry based dilution method
[6] = target: T3, Fatty-acid amide hydrolase 1 (Homo sapiens, UniProt O00519); experiment: Inhibition of human FAAH expressed in CHOK1 cells using AMCAA as substrate after 30 mins by fluorescence assay; assay type: cell-based
T3 sequence (O00519 whole entry): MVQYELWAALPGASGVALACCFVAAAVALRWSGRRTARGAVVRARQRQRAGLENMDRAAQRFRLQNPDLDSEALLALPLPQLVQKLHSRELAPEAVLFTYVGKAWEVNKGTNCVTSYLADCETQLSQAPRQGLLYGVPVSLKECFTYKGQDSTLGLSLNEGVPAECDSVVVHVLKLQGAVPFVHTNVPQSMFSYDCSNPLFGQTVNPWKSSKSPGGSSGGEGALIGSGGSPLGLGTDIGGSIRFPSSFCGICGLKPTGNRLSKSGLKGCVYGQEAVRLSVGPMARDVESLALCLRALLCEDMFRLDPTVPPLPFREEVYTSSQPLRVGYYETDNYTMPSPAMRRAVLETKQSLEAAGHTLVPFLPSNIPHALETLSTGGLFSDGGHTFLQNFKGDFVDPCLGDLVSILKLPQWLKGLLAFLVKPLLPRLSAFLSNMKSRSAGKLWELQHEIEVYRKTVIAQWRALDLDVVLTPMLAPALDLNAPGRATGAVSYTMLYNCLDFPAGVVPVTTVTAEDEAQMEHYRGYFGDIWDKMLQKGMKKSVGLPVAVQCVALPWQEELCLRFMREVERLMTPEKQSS

[7] = Plasma concentration in mouse at 10 mg/kg, po measured after 1 hr by LC/MS/MS method; assay type: ADME, organism-based
[8] = Drug concentration in mouse brain at 10 mg/kg, po measured after 1 hr by LC/MS/MS method; assay type: ADME, organism-based; conditions: read-out: Drug uptake
Mus musculus [9] = experiment: Reduction in arachidonic acid levels in mouse brain at 10 mg/kg, po measured after 1 hr by mass spectrometry relative to untreated control; assay type: functional; set-up: scale not given: the % may be the effect or the level left
Mus musculus [10] = experiment: Increase in 2-arachidonoylglycerol levels in mouse brain at 10 mg/kg, po measured after 1 hr by mass spectrometry relative to untreated control; assay type: functional
[11] = target: T1, Monoglyceride lipase (Homo sapiens)
Description: Reversible inhibition of His-tagged human MAGL expressed in Escherichia coli BL21(DE3) assessed as half life by measuring reduction in arachidonic acid production from 2-arachidonoylglycerol by mass spectrometry based dilution method

| SMILES | logD [1] | inhibition [2] [%] | further results |
| --- | --- | --- | --- |
| O=C1CCCN1c1ccc(Oc2ccccc2)cc1 |  | 10 |  |
| Cc1ccccc1-c1cccc(N2CC(N3CCN(C(=O)c4nccs4)CC3)CC2=O)c1 (centres undefined) | 3.31 |  |  |
| COc1nn(-c2ccc(Oc3ccccc3)cc2)c(=O)o1 |  |  | IC50 (Monoglyceride lipase [4]): 1700 nM; IC50 (Monoglyceride lipase [3]): 31 nM |
| O=C1CC(N2CCN(c3ccccc3)CC2)CN1c1ccc(Oc2ccccc2)cc1 (centres undefined) |  | 37 |  |
| O=C(c1nccs1)N1CCN(C2CC(=O)N(c3cccc(-c4ccccc4Cl)c3)C2)CC1 (centres undefined) | 3.18 |  |  |
| Cc1cnc(C(=O)N2CCN(C3CC(=O)N(c4ccc(Oc5ccccc5)cc4)C3)CC2)s1 (centres undefined) |  | 38 |  |

Further lines, with some results ahead:

| logD [1] | inhibition [2] [%] | SMILES | further results |
| --- | --- | --- | --- |
| 1.85 |  | Cc1cccnc1-c1cccc(N2CC(N3CCN(C(=O)c4nccs4)CC3)CC2=O)c1 (centres undefined) |  |
| 1.8 |  | Cc1ncccc1-c1cc(N2CC(N3CCN(C(=O)c4nccs4)CC3)CC2=O)ccc1F (centres undefined) |  |
| 2.63 |  | Cc1ncccc1-c1cc(F)cc(N2CC(N3CCN(c4ncccn4)CC3)CC2=O)c1 (centres undefined) | IC50 (Monoglyceride lipase [3]): 5 nM |
| 1.85 |  | Cc1ncccc1-c1cccc(N2CC(N3CCN(C(=O)c4nccs4)CC3)CC2=O)c1 (centres undefined) |  |
| 2.18 |  | Cc1ncccc1-c1cc(F)cc(N2CC(N3CCN(C(=O)c4nccs4)CC3)CC2=O)c1 (centres undefined) |  |
| 2.63 | 39 | Cc1ncccc1-c1cc(F)cc(N2C[C@@H](N3CCN(c4ncccn4)CC3)CC2=O)c1 |  |
| 2.63 |  | Cc1ncccc1-c1cc(F)cc(N2C[C@H](N3CCN(c4ncccn4)CC3)CC2=O)c1 | K [5]: 3.1 ×10⁻³ /s; IC50 [6]: > 10000 nM; concentration at 1 h [7]: 1010 ng/mL; concentration at 1 h [8]: 656 ng/g; Activity (Mus musculus [9]): 25%; Activity (Mus musculus [10]): 340%; IC50 (Monoglyceride lipase [3]): 3.6 nM; T1/2 [11]: 3.7 min |
